In patent US10081628B2, “Apoptosis-inducing agents for the treatment of cancer and immune and autoimmune diseases” (AbbVie Inc., priority 2013, dated 2018):

What was measured:
RS4;11 cells = experiment: RS4;11 cell viability assay (CellTiter Glo); format: cell-based; conditions: 10% human serum, 48 hours
Text: The acute lymphoblastic leukemia (ALL) cell line RS4;11 was used as the primary human cell line to assess the cellular activity of Bcl-2 selective agents in vitro and their efficacy in vivo. Previous studies have shown by BH3 profiling, a mitochondrial assay that classifies blocks in the intrinsic apoptotic pathway, that RS4;11 cells were highly dependant on BCL-2 for survival and sensitive to the Bcl-2 family member inhibitor ABT-737 (Blood, 2008, Vol. 111, 2300-2309).
RS4;11 cells were cultured in RPMI-1640 supplemented with 2 mM L-glutamine, 10% FBS, 1 mM sodium pyruvate, 2 mM HEPES, 1% penicillin/streptomycin (Invitrogen), 4.5 g/L glucose and maintained at 37 C containing 5% CO2. To test for the cellular activity of compounds in vitro, cells were treated at 50,000 cells per well in 96-well microtiter plates in the presence of 10% human serum for 48 hours in a humidified chamber with 5% CO2. Cell cytotoxicity EC50 values were assessed using CellTiter Glo (Promega) according to the manufacturer's recommendations. The EC50 values were determined as a percentage of viable cells following treatment compared to the untreated control cells.

GST-Bcl-2 = GST-Bcl-2 (Homo sapiens, UniProt P10415); experiment: TR-FRET Bcl-2 binding assay (F-Bak peptide probe); conditions: GST-Bcl-2 1 nM, F-Bak peptide probe 100 nM, Tb-anti-GST 1 nM; Wang's equation; '<' = below limit of detection
Experimental: Determination of the utility of compounds of this invention as binders to and inhibitors of anti-apoptotic Bcl-2 proteins was performed using the Time Resolved-Fluorescence Resonance Energy Transfer (TR-FRET) Assay. Tb-anti-GST antibody was purchased from Invitrogen (Catalog No. PV4216).
Representative compounds were serially diluted in dimethyl sulfoxide (DMSO) starting at 50 μM (2× starting concentration; 10% DMSO) and 10 μL were transferred into a 384-well plate. The samples are then mixed on a shaker for 1 minute and incubated for an additional 3 hours at room temperature. For each assay, the probe/antibody and protein/probe/antibody were included on each assay plate as negative and positive controls, respectively. Fluorescence was measured on the Envision (Perkin Elmer) using a 340/35 nm excitation filter and 520/525 (F-Bak peptide) and 495/510 nm (Tb-labeled […] antibody) emission filters. Dissociation constants (Ki) are shown in TABLE 2 below and were determined using Wang's equation (Wang Z.-X., An Exact Mathematical Expression For Describing Competitive Binding Of Two Different Ligands To A Protein Molecule. FEBS Lett. 1995, 360:111-4).
The samples were then mixed on a shaker for 1 minute and incubated for an additional 3 hours at room temperature. For each assay, the probe/antibody and protein/probe/antibody were included on each assay plate as negative and positive controls, respectively. Fluorescence was measured on the Envision (Perkin Elmer) using a 340/35 nm excitation filter and 520/525 (F-Bak peptide) and 495/510 nm (Tb-labeled anti-Histidine antibody) emission filters.
Inhibition constants (Ki) for compounds were determined using Wang's equation (Wang Zx. An Exact Mathematical Expression For Describing Competitive Binding Of Two Different Ligands To A Protein Molecule. FEBS Lett. 1995, 360:111-4).
The inhibition constant (Ki) is the dissociation constant of an enzyme-inhibitor complex or a protein/small molecule complex, wherein the small molecule is inhibiting binding of one protein to another protein or peptide. So a large Ki value indicates a low binding affinity and a small Ki value indicates a high binding affinity. […] The compounds are therefore expected to have utility in treatment of diseases during which anti-apoptotic Bcl-2 protein is expressed. Biological Data

GST-Bcl-2, sequence (P10415 whole entry): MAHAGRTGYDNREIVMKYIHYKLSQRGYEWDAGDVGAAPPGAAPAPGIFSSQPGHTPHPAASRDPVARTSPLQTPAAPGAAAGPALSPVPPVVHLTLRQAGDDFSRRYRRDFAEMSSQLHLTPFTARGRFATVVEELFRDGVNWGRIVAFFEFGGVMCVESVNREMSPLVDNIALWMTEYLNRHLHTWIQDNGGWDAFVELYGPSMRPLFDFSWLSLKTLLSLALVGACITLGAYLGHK

## CC1(C)CCC(CN2CCN(c3ccc(C(=O)NS(=O)(=O)c4ccc(NCC5CCN(S(=O)(=O)C(F)(F)F)CC5)c([N+](=O)[O-])c4)c(Oc4cnc5[nH]ccc5c4)c3)CC2)=C(c2ccc(Cl)cc2)C1 [Example 29, 4-(4-{[2-(4-chlorophenyl)-4,4-dimethylcyclohex-1-en-1-yl]methyl}piperazin-1-yl)-N-({3-nitro-4-[({1-[(trifluoromethyl)sulfonyl]piperidin-4-yl}methyl)amino]phenyl}sulfonyl)-2-(1H-pyrrolo[2,3-b]pyridin-5-yloxy)benzamide]
RS4;11 cells
  EC50: 57 nM
GST-Bcl-2
  Ki: < 0.1 nM

## CC1(C)CCC(CN2CCN(c3ccc(C(=O)NS(=O)(=O)c4ccc(N5CCOCC5)c([N+](=O)[O-])c4)c(Oc4cnc5[nH]ccc5c4)c3)CC2)=C(c2ccc(Cl)cc2)C1 [Example 8, 4-(4-{[2-(4-chlorophenyl)-4,4-dimethylcyclohex-1-en-1-yl]methyl}piperazin-1-yl)-N-{[4-(morpholin-4-yl)-3-nitrophenyl]sulfonyl}-2-(1H-pyrrolo[2,3-b]pyridin-5-yloxy)benzamide]
RS4;11 cells
  EC50: > 1000 nM
GST-Bcl-2
  Ki: 0.7 nM

## CC1(C)CCC(CN2CCN(c3ccc(C(=O)NS(=O)(=O)c4ccc(NCC5CCS(=O)(=O)CC5)c([N+](=O)[O-])c4)c(Oc4cnc5[nH]ccc5c4)c3)CC2)=C(c2ccc(Cl)cc2)C1 [Example 43, 4-(4-{[2-(4-chlorophenyl)-4,4-dimethylcyclohex-1-en-1-yl]methyl}piperazin-1-yl)-N-[(4-{[(1,1-dioxidotetrahydro-2H-thiopyran-4-yl)methyl]amino}-3-nitrophenyl)sulfonyl]-2-(1H-pyrrolo[2,3-b]pyridin-5-yloxy)benzamide]
RS4;11 cells
  EC50: 31 nM
GST-Bcl-2
  Ki: < 0.1 nM

## CC1(C)CCC(CN2CCN(c3ccc(C(=O)NS(=O)(=O)c4ccc(NCC5CC[S+]([O-])CC5)c([N+](=O)[O-])c4)c(Oc4cnc5[nH]ccc5c4)c3)CC2)=C(c2ccc(Cl)cc2)C1 (centres unmarked) [Example 32, 4-(4-{[2-(4-chlorophenyl)-4,4-dimethylcyclohex-1-en-1-yl]methyl}piperazin-1-yl)-N-[(3-nitro-4-{[(1-oxidotetrahydro-2H-thiopyran-4-yl)methyl]amino}phenyl)sulfonyl]-2-(1H-pyrrolo[2,3-b]pyridin-5-yloxy)benzamide]
RS4;11 cells
  EC50: 43 nM
GST-Bcl-2
  Ki: < 0.1 nM

## CC1(C)CCC(CN2CCN(c3ccc(C(=O)NS(=O)(=O)c4ccc(NCC5CCN(S(C)(=O)=O)CC5)c([N+](=O)[O-])c4)c(Oc4cnc5[nH]ccc5c4)c3)CC2)=C(c2ccc(Cl)cc2)C1 [Example 30, 4-(4-{[2-(4-chlorophenyl)-4,4-dimethylcyclohex-1-en-1-yl]methyl}piperazin-1-yl)-N-{[4-({[1-(methylsulfonyl)piperidin-4-yl]methyl}amino)-3-nitrophenyl]sulfonyl}-2-(1H-pyrrolo[2,3-b]pyridin-5-yloxy)benzamide]
RS4;11 cells
  EC50: 27 nM
GST-Bcl-2
  Ki: < 0.1 nM

## CC(=O)N1CCC(CNc2ccc(S(=O)(=O)NC(=O)c3ccc(N4CCN(CC5=C(c6ccc(Cl)cc6)CC(C)(C)CC5)CC4)cc3Oc3cnc4[nH]ccc4c3)cc2[N+](=O)[O-])CC1 [Example 47, N-[(4-{[(1-acetylpiperidin-4-yl)methyl]amino}-3-nitrophenyl)sulfonyl]-4-(4-{[2-(4-chlorophenyl)-4,4-dimethylcyclohex-1-en-1-yl]methyl}piperazin-1-yl)-2-(1H-pyrrolo[2,3-b]pyridin-5-yloxy)benzamide]
RS4;11 cells
  EC50: 14 nM
GST-Bcl-2
  Ki: < 0.1 nM

## CC1(C)CCC(CN2CCN(c3ccc(C(=O)NS(=O)(=O)c4ccc(NC[C@H]5C[C@@H](C#N)C5)c([N+](=O)[O-])c4)c(Oc4cnc5[nH]ccc5c4)c3)CC2)=C(c2ccc(Cl)cc2)C1 [Example 42, 4-(4-{[2-(4-chlorophenyl)-4,4-dimethylcyclohex-1-en-1-yl]methyl}piperazin-1-yl)-N-[(4-{[(cis-3-cyanocyclobutyl)methyl]amino}-3-nitrophenyl)sulfonyl]-2-(1H-pyrrolo[2,3-b]pyridin-5-yloxy)benzamide]
RS4;11 cells
  EC50: 56 nM
GST-Bcl-2
  Ki: < 0.1 nM
